Source: publication PMC5518309 (ChemMedChem, 2014)
Numbered stars: 1 amine (or outer) side, 2 acyl side, 3 side chain; on linkers, the order of the positions; unused ones are H or OH. Side chains are listed from the residue outwards. Peptide text beside a SMILES is read from it. * marks the point of attachment. Arachidoyl = CCCCCCCCCCCCCCCCCCCC(=O)*; γGlu = O=C(O)[C@H](CCC(=O)[*:2])N[*:1]; Palmitoyl = CCCCCCCCCCCCCCCC(=O)*; Lauroyl = CCCCCCCCCCCC(=O)*; Octanoyl = CCCCCCCC(=O)*; Propionyl = CCC(=O)*

What was measured:
Type in all cases: cell-based
hY5R = biological target: T1, hY5R (Homo sapiens, UniProt Q15761); assay: Inositol phosphate accumulation assay, hY5R; settings: for Emax: read-out: hY5R Emax
T1 sequence (Q15761 1-445): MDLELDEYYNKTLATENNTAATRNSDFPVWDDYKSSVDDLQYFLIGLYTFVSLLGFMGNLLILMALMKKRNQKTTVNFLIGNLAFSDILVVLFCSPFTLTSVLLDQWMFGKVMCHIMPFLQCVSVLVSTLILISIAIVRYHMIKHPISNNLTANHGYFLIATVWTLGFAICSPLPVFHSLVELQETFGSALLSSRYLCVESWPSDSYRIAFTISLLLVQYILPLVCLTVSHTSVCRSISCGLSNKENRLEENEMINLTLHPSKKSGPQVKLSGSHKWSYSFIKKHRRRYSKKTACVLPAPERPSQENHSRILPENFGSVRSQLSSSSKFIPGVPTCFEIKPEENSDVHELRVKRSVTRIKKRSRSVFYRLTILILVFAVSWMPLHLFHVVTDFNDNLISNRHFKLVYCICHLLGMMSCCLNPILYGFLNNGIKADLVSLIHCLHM

hY1R = biological target: T2, hY1R (Homo sapiens, UniProt P25929); assay: Inositol phosphate accumulation assay, hY1R; settings: for Emax: read-out: hY1R Emax
T2 sequence (P25929 1-384): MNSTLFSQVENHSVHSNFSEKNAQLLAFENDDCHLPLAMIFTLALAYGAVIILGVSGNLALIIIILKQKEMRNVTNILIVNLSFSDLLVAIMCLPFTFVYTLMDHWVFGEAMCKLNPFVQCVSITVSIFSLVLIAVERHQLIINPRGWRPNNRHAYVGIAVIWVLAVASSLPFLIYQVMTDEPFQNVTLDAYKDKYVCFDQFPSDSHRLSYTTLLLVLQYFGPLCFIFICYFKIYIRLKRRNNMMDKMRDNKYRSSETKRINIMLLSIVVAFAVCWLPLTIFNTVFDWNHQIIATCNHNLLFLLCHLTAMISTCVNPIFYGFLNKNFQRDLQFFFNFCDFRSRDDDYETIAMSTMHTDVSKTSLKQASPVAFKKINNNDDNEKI

hY4R = hY4R (Homo sapiens, UniProt P50391); assay: Inositol phosphate accumulation assay, hY4R; settings: for Emax: read-out: hY4R Emax
Sequence of hY4R (P50391 whole entry): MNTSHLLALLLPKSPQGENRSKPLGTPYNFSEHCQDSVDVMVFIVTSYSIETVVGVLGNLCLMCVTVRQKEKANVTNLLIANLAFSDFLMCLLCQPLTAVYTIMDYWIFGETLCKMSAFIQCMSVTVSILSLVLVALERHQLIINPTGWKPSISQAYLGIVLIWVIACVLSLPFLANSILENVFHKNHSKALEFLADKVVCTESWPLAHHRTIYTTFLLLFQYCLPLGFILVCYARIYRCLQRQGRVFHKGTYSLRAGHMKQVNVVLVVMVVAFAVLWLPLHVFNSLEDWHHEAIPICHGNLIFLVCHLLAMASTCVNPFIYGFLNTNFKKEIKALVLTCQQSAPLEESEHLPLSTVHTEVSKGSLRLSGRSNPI

hY2R = biological target: T3, hY2R (Homo sapiens, UniProt P49146); assay: Inositol phosphate accumulation assay, hY2R; settings: for Emax: read-out: hY2R Emax
T3 sequence (P49146 1-381): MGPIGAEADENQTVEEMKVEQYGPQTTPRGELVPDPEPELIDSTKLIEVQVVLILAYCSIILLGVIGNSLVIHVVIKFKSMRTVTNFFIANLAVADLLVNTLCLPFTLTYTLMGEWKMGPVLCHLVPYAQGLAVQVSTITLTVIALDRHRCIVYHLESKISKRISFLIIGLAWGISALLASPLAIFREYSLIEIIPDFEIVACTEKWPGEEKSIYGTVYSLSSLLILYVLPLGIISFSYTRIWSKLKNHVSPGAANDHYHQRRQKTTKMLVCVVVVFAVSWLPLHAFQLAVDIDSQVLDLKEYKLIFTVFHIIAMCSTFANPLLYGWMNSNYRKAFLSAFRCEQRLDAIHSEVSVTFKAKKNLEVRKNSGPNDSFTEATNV

Row | EC50 (hY5R) | Emax (hY5R) | EC50 (hY1R) | Emax (hY1R) | EC50 (hY4R) | Emax (hY4R) | EC50 (hY2R) | Emax (hY2R) | Compound
1 | 937 nM | 70 ± 3% | > 1000 nM | 99 ± 4% | 1.3 nM | 88 ± 4% | > 1000 nM | 88 ± 6% | CCC(=O)N[C@@H](CCC(=O)NCCCC[C@H](NC(=O)[C@H](CC(N)=O)NC(=O)[C@@H](NC(=O)[C@H](Cc1ccc(O)cc1)NC(=O)[C@H](CCCNC(=N)N)NC(=O)[C@H](CCCNC(=N)N)NC(=O)[C@H](CC(C)C)NC(=O)[C@H](CC(=O)O)NC(=O)[C@H](C)NC(=O)[C@H](C)NC(=O)[C@H](Cc1ccc(O)cc1)NC(=O)[C@H](CCC(N)=O)NC(=O)[C@H](C)NC(=O)[C@H](CCSC)NC(=O)[C@H](CCC(N)=O)NC(=O)[C@H](CCC(=O)O)NC(=O)[C@@H]1CCCN1C(=O)[C@@H](NC(=O)[C@H](C)NC(=O)[C@H](CC(N)=O)NC(=O)[C@H](CC(=O)O)NC(=O)CNC(=O)[C@@H]1CCCN1C(=O)[C@H](Cc1ccc(O)cc1)NC(=O)[C@@H](NC(=O)[C@@H]1CCCN1C(=O)[C@H](CCC(=O)O)NC(=O)[C@H](CC(C)C)NC(=O)[C@@H]1CCCN1)C(C)C)[C@@H](C)O)[C@@H](C)CC)C(=O)N[C@@H](CC(C)C)C(=O)N[C@H](C(=O)N[C@@H](CCCNC(=N)N)C(=O)N1CCC[C@H]1C(=O)N[C@@H](CCCNC(=N)N)C(=O)N[C@@H](Cc1ccc(O)cc1)C(N)=O)[C@@H](C)O)C(=O)O [15a, [K^30(E-Prop)]hPP2–36] (H-PLEPVYPGDNATPEQMAQYAADLRRYINK([γGlu-Propionyl])LTRPRY-NH2)
2 | 1.6 nM | 75 ± 5% | 76.2 nM | 85 ± 3% | 1.2 nM | 78 ± 4% | 21.1 nM | 92 ± 3% | CCCCCCCCCCCCCCCC(=O)N[C@@H](CCC(=O)NCCCC[C@H](NC(=O)[C@H](CC(N)=O)NC(=O)[C@@H](NC(=O)[C@H](Cc1ccc(O)cc1)NC(=O)[C@H](CCCNC(=N)N)NC(=O)[C@H](CCCNC(=N)N)NC(=O)[C@H](CC(C)C)NC(=O)[C@H](CC(=O)O)NC(=O)[C@H](C)NC(=O)[C@H](C)NC(=O)[C@H](Cc1ccc(O)cc1)NC(=O)[C@H](CCC(N)=O)NC(=O)[C@H](C)NC(=O)[C@H](CCSC)NC(=O)[C@H](CCC(N)=O)NC(=O)[C@H](CCC(=O)O)NC(=O)[C@@H]1CCCN1C(=O)[C@@H](NC(=O)[C@H](C)NC(=O)[C@H](CC(N)=O)NC(=O)[C@H](CC(=O)O)NC(=O)CNC(=O)[C@@H]1CCCN1C(=O)[C@H](Cc1ccc(O)cc1)NC(=O)[C@@H](NC(=O)[C@@H]1CCCN1C(=O)[C@H](CCC(=O)O)NC(=O)[C@H](CC(C)C)NC(=O)[C@@H]1CCCN1)C(C)C)[C@@H](C)O)[C@@H](C)CC)C(=O)N[C@@H](CC(C)C)C(=O)N[C@H](C(=O)N[C@@H](CCCNC(=N)N)C(=O)N1CCC[C@H]1C(=O)N[C@@H](CCCNC(=N)N)C(=O)N[C@@H](Cc1ccc(O)cc1)C(N)=O)[C@@H](C)O)C(=O)O [18a, [K^30(E-Pam)]hPP2–36] (H-PLEPVYPGDNATPEQMAQYAADLRRYINK([γGlu-Palmitoyl])LTRPRY-NH2)
3 | 38.8 nM | 81 ± 5% | > 1000 nM | 81 ± 4% | 3.6 nM | 83 ± 5% | 296 nM | 98 ± 4% | CCCCCCCCCCCC(=O)N[C@@H](CCC(=O)NCCCC[C@H](NC(=O)[C@H](CC(N)=O)NC(=O)[C@@H](NC(=O)[C@H](Cc1ccc(O)cc1)NC(=O)[C@H](CCCNC(=N)N)NC(=O)[C@H](CCCNC(=N)N)NC(=O)[C@H](CC(C)C)NC(=O)[C@H](CC(=O)O)NC(=O)[C@H](C)NC(=O)[C@H](C)NC(=O)[C@H](Cc1ccc(O)cc1)NC(=O)[C@H](CCC(N)=O)NC(=O)[C@H](C)NC(=O)[C@H](CCSC)NC(=O)[C@H](CCC(N)=O)NC(=O)[C@H](CCC(=O)O)NC(=O)[C@@H]1CCCN1C(=O)[C@@H](NC(=O)[C@H](C)NC(=O)[C@H](CC(N)=O)NC(=O)[C@H](CC(=O)O)NC(=O)CNC(=O)[C@@H]1CCCN1C(=O)[C@H](Cc1ccc(O)cc1)NC(=O)[C@@H](NC(=O)[C@@H]1CCCN1C(=O)[C@H](CCC(=O)O)NC(=O)[C@H](CC(C)C)NC(=O)[C@@H]1CCCN1)C(C)C)[C@@H](C)O)[C@@H](C)CC)C(=O)N[C@@H](CC(C)C)C(=O)N[C@H](C(=O)N[C@@H](CCCNC(=N)N)C(=O)N1CCC[C@H]1C(=O)N[C@@H](CCCNC(=N)N)C(=O)N[C@@H](Cc1ccc(O)cc1)C(N)=O)[C@@H](C)O)C(=O)O [compound 17, [K^30(E-Laur)]hPP2–36] (H-PLEPVYPGDNATPEQMAQYAADLRRYINK([γGlu-Lauroyl])LTRPRY-NH2)
4 | 0.8 nM | 75 ± 6% | 11.3 nM | 101 ± 6% | 2.7 nM | 93 ± 6% | 0.9 nM | 90 ± 5% | CCCCCCCCCCCCCCCCCCCC(=O)N[C@@H](CCC(=O)NCCCC[C@H](NC(=O)[C@H](C)NC(=O)[C@H](Cc1ccc(O)cc1)NC(=O)[C@H](CCC(N)=O)NC(=O)[C@H](C)NC(=O)[C@H](CCSC)NC(=O)[C@H](CCC(N)=O)NC(=O)[C@H](CCC(=O)O)NC(=O)[C@@H]1CCCN1C(=O)[C@@H](NC(=O)[C@H](C)NC(=O)[C@H](CC(N)=O)NC(=O)[C@H](CC(=O)O)NC(=O)CNC(=O)[C@@H]1CCCN1C(=O)[C@H](Cc1ccc(O)cc1)NC(=O)[C@@H](NC(=O)[C@@H]1CCCN1C(=O)[C@H](CCC(=O)O)NC(=O)[C@H](CC(C)C)NC(=O)[C@@H]1CCCN1)C(C)C)[C@@H](C)O)C(=O)N[C@@H](CC(=O)O)C(=O)N[C@@H](CC(C)C)C(=O)N[C@@H](CCCNC(=N)N)C(=O)N[C@@H](CCCNC(=N)N)C(=O)N[C@@H](Cc1ccc(O)cc1)C(=O)N[C@H](C(=O)N[C@@H](CC(N)=O)C(=O)N[C@@H](CCSC)C(=O)N[C@@H](CC(C)C)C(=O)N[C@H](C(=O)N[C@@H](CCCNC(=N)N)C(=O)N1CCC[C@H]1C(=O)N[C@@H](CCCNC(=N)N)C(=O)N[C@@H](Cc1ccc(O)cc1)C(N)=O)[C@@H](C)O)[C@@H](C)CC)C(=O)O [compound 13, [K^22(E-Ara)]hPP2–36] (H-PLEPVYPGDNATPEQMAQYAK([γGlu-Arachidoyl])DLRRYINMLTRPRY-NH2)
5 | 386 nM | 75 ± 5% | > 1000 nM | 84 ± 6% | 1.2 nM | 82 ± 4% | > 1000 nM | 85 ± 5% | CCCCCCCC(=O)N[C@@H](CCC(=O)NCCCC[C@H](NC(=O)[C@H](CC(N)=O)NC(=O)[C@@H](NC(=O)[C@H](Cc1ccc(O)cc1)NC(=O)[C@H](CCCNC(=N)N)NC(=O)[C@H](CCCNC(=N)N)NC(=O)[C@H](CC(C)C)NC(=O)[C@H](CC(=O)O)NC(=O)[C@H](C)NC(=O)[C@H](C)NC(=O)[C@H](Cc1ccc(O)cc1)NC(=O)[C@H](CCC(N)=O)NC(=O)[C@H](C)NC(=O)[C@H](CCSC)NC(=O)[C@H](CCC(N)=O)NC(=O)[C@H](CCC(=O)O)NC(=O)[C@@H]1CCCN1C(=O)[C@@H](NC(=O)[C@H](C)NC(=O)[C@H](CC(N)=O)NC(=O)[C@H](CC(=O)O)NC(=O)CNC(=O)[C@@H]1CCCN1C(=O)[C@H](Cc1ccc(O)cc1)NC(=O)[C@@H](NC(=O)[C@@H]1CCCN1C(=O)[C@H](CCC(=O)O)NC(=O)[C@H](CC(C)C)NC(=O)[C@@H]1CCCN1)C(C)C)[C@@H](C)O)[C@@H](C)CC)C(=O)N[C@@H](CC(C)C)C(=O)N[C@H](C(=O)N[C@@H](CCCNC(=N)N)C(=O)N1CCC[C@H]1C(=O)N[C@@H](CCCNC(=N)N)C(=O)N[C@@H](Cc1ccc(O)cc1)C(N)=O)[C@@H](C)O)C(=O)O [16a, [K^30(E-Capr)]hPP2–36] (H-PLEPVYPGDNATPEQMAQYAADLRRYINK([γGlu-Octanoyl])LTRPRY-NH2)
